Test results as given in ChEMBL document CHEMBL1667781, “Biological evaluation of KRIBB3 analogs as a microtubule polymerization inhibitor” (Bioorg Med Chem Lett, 2011).

Assay: Inhibition of tubulin polymerization for 70 mins by microtubule polymerization assay
Design: concentration or dose not given beside the values

| Structure (SMILES) | inhibition |
| --- | --- |
| COc1ccc(-c2cnoc2-c2ccc(O)c(O)c2)cc1 | 65% |
| COc1ccc(-c2cnoc2-c2cc(C)c(O)c(C)c2)cc1 | 76% |
| CCc1cc(-c2oncc2-c2ccc(OC)cc2)c(OCc2ccccc2)cc1OC | 79% |
| COc1ccc(-c2cnoc2-c2ccc(OC)c(OCc3ccccc3)c2)cc1 | 128% |
| COc1ccc(-c2cnoc2-c2ccc(OCc3ccccc3)c(OCc3ccccc3)c2)cc1 | 80% |
| COc1ccc(-c2cnoc2-c2ccc(OC)c(O)c2)cc1 | 50% |
| COc1ccc(-c2cnoc2-c2cc(C)c(OCc3ccccc3)c(C)c2)cc1 | 126% |
| CCc1cc(-c2oncc2-c2ccc(OC)cc2)c(O)cc1OC | 52% |
| CCc1cc(-c2oncc2-c2ccc(O)cc2)c(O)cc1O | 134% |
| CCc1cc(-c2oncc2-c2ccc(O)cc2)c(O)cc1OC | 115% |
| COc1ccc(-c2cnoc2-c2ccc(O)cc2)cc1 | 80% |
